In the NIST ThermoML archive (doi:10.1016/j.jct.2010.09.005):
Where “and” joins values, the source holds several entries; their conditions need not be identical. Equal entries are not always repeated. ± gives the expanded uncertainty stated by the source.

Key:
[1] = molar enthalpy of vaporization or sublimation; settings: 298.15 K, vacuum sublimation
[2] = Crystal, Calculated from knudsen effusion weight loss

Structure (SMILES): CC(=O)c1ccc(Cl)cc1Cl [2',4'-dichloroacetophenone]
- molar enthalpy ([1]; Crystal): 15.2 ± 0.669 kcal/mol

Structure (SMILES): CC(=O)c1cc(Cl)ccc1Cl [2',5'-dichloroacetophenone]
- molar enthalpy ([1]; Liquid): 15.8 ± 0.717 kcal/mol

Structure (SMILES): CC(=O)c1ccc(Cl)c(Cl)c1 [3',4'-dichloroacetophenone]
- vapor or sublimation pressure ([2]; 293.25 K): 0.0001703 ± 8.5e-06 kPa and 0.0001647 ± 8.3e-06 kPa and 0.0001655 ± 8.3e-06 kPa
- vapor or sublimation pressure ([2]; 295.17 K): 0.0002238 ± 1.1e-05 kPa and 0.0002145 ± 1.1e-05 kPa and 0.000213 ± 1.1e-05 kPa
- vapor or sublimation pressure ([2]; 297.09 K): 0.0002738 ± 1.4e-05 kPa and 0.0002832 ± 1.4e-05 kPa and 0.0002774 ± 1.4e-05 kPa
- vapor or sublimation pressure ([2]; 299.21 K): 0.0003484 ± 1.7e-05 kPa and 0.0003522 ± 1.8e-05 kPa and 0.0003546 ± 1.8e-05 kPa
- vapor or sublimation pressure ([2]; 301.16 K): 0.0004547 ± 2.3e-05 kPa and 0.0004516 ± 2.3e-05 kPa and 0.0004492 ± 2.3e-05 kPa
- vapor or sublimation pressure ([2]; 303.08 K): 0.0005694 ± 2.9e-05 kPa and 0.0005819 ± 2.9e-05 kPa and 0.0005785 ± 2.9e-05 kPa
- vapor or sublimation pressure ([2]; 305.19 K): 0.0007368 ± 3.7e-05 kPa and 0.0007202 ± 3.6e-05 kPa and 0.0007224 ± 3.6e-05 kPa
- vapor or sublimation pressure ([2]; 307.16 K): 0.000944 ± 4.7e-05 kPa and 0.0009302 ± 4.7e-05 kPa and 0.0009113 ± 4.6e-05 kPa
- vapor or sublimation pressure ([2]; 309.09 K): 0.001174 ± 0.00012 kPa and 0.001186 ± 0.00012 kPa and 0.001176 ± 0.00012 kPa
- molar enthalpy ([1]; Crystal): 21.7 ± 0.765 kcal/mol
